From article PMC9490236, “Accurate de novo design of membrane-traversing macrocycles” (Cell, 2022)
Where “and” joins values, the source holds several entries; their conditions need not be identical. Identical values can stand only once. Like-named read-outs stand apart in the source and are kept apart here. Where a SMILES comes first, the peptide text is derived from it. [ ]: non-standard residue; d: D form. dNMeI = CC[C@@H](C)[C@@H](NC)C(=O)O; NMeL = CN[C@@H](CC(C)C)C(=O)O; dNMeL = CN[C@H](CC(C)C)C(=O)O; Sar = CNCC(=O)O

Columns and labels:
[1] = PAMPA
in vitro = details: PAMPA, PAMPA_Papp_Avg
Caco-2 cells = assay: Caco-2 permeability assay (apical to basolateral); format: in vitro ADME, human; details: Caco-2
Procedure, shortened: (§1)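 Caco-2 monolayers were grown on 0.4 μm Transwell inserts for 6 days. Peptides were applied apically at 50 μM with HBSS basolaterally and incubated 90 min at 37°C with shaking.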

[2] = Caco-2 permeability assay (apical to basolateral); format: in vitro ADME, human; details: for Papp A→B: Caco-2, Caco_Papp_Average
Procedure, shortened: as §1

[3] = Pharmacokinetics and oral bioavailability of D8.3.p1 and D10.1 in Balb/C female mice (PO, SQ, IV); format: in vivo
Method: In vivo bioavailability assays were conducted in mice and rats. D8.3.p1 and D10.1 were studied in female Balb/C mice by van Voorhis group at University of Washington. D11.2 was evaluated in Sprague Dawley (SD) rats by Robert Griffin’s group at Takeda Pharmaceuticals. D11.3 was studied in the male swiss albino mice by the contract research organization, GVK Biosciences Pvt. Ltd., Hyderabad, India. All animals used in these studies were handled in strict accordance with practices made to minimize suffering. All animal experiments conducted at the University of Washington, USA, and Takeda Pharmaceuticals, USA were approved by the Institutional Animal Care and Use Committee. Animal studies at GVK Biosciences were reviewed and approved by the Institutional Animal Ethics Committee of GVK Biosciences. We selected four designed macrocycles with diverse structures and in vitro rates of permeability for in vivo oral bioavailability studies in the rodent models. Due to the intensive resource requirements for such studies, these studies were conducted by three different research groups. D8.3.p1 and D10.1 were studied in female Balb/C mice by van Voorhis group at University of Washington. D11.2 was evaluated in Sprague Dawley (SD) rats by Robert Griffin’s group at Takeda Pharmaceuticals. D11.3 was studied in the male swiss albino mice by the contract research organization, GVK Biosciences Pvt. Ltd., Hyderabad, India. […] Blood samples were collected at multiple time points and plasma was separated from whole blood using centrifugation and stored at -80°C. […] Samples were mixed, centrifuged, and supernatant harvested for LC-MS analysis. For RP-HPLC analysis, peptides were evaluated using Agilent ZORBAX Eclipse Plus C18 1.8 μm, 2.1 mm x 50 mm and Waters Xevo TQ-S micro Triple Quadrupole/ACQUITY UPLC H-Class. […] Pharmacokinetic parameters were modeled using the Phoenix WinNonlin software package. […]

[4] = D8.3.p1 IV 1 mg/kg, individual mice M1, M2, M3, 1 mg/kg
[5] = D8.3.p1 PO 5 mg/kg, individual mice M1, M2, M3, 5 mg/kg
[6] = D8.3.p1 SQ 5 mg/kg, individual mice M1, M2, M3
[7] = female, Balb/C, mouse, in vivo, iv, 1 mg/kg, Plasma level
[8] = female, Balb/C, mouse, in vivo, sc, 5 mg/kg, Plasma level

## CC[C@@H](C)[C@H]1NC(=O)[C@H]([C@@H](C)CC)NC(=O)[C@H](CC(C)C)N(C)C(=O)[C@H]2CCCN2C(=O)[C@@H]([C@H](C)CC)NC(=O)[C@@H]([C@H](C)CC)N(C)C(=O)[C@H](CC(C)C)NC(=O)[C@H]2CCCN2C(=O)[C@@H]2CCCN2C(=O)[C@H](C(C)C)NC(=O)[C@H]2CCCN2C1=O [Design D11.3, VAL PRO DPRO LEU *DILE DILE DPRO *LEU ILE DILE DPRO] (cyclo(I[dI][dP]VP[dP]L[dNMeI][dI][dP][NMeL]))
[1]
  PAMPA_R1: 1.91E-06
  PAMPA_R3: 1.10E-06
In vitro
  Papp: 1.48 ×10⁻⁶ cm/s
Caco-2 cells
  Caco_R1: 7.29
  Caco_R3: 11.26
[2]; Caco-2
  Papp: 9.11 ×10⁻⁶ cm/s
[2]
  Papp A→B: 9.11 ×10⁻⁶ cm/s

## CC[C@@H](C)[C@H]1NC(=O)[C@@H](CC(C)C)NC(=O)[C@@H](CC(C)C)N(C)C(=O)[C@@H]2CCCN2C(=O)[C@@H](C(C)C)NC(=O)[C@H](CC(C)C)NC(=O)[C@@H](CC(C)C)N(C)C(=O)[C@@H]2CCCN2C1=O [Design D8.3.p1, DLEU DVAL PRO *DLEU DLEU DILE PRO *DLEU] (cyclo(L[dV]P[dNMeL][dL][dI]P[dNMeL]))
[1]
  PAMPA_R1: 5.23E-06
  PAMPA_R3: 3.90E-06
[3]; [4]
  CLP: 37.62 mL/min/kg and 49.17 mL/min/kg and 38.55 mL/min/kg
  MRT: 15.45 min and 13.12 min and 15.23 min
  T1/2: 14.5 min and 10.5 min and 11.24 min
  VSS: 0.79 L/kg and 0.75 L/kg and 0.62 L/kg
  VZ: 0.89 L/kg and 0.87 L/kg and 0.59 L/kg
[3]; D8.3.p1 IV 1 mg/kg, individual mice M1, M2, M3, 1 mg/kg, read-out: C0
  C0: 1610 nM and 1470 nM
[3]; D8.3.p1 IV 1 mg/kg, mean n=3
  Half-life T1/2: 12.08 min
  Mean residence time MRT: 14.60 min
  Plasma clearance CLP: 41.78 mL/min/kg
  Volume of distribution @ steady state VSS: 0.72 ± 0.09 L/kg
  Volume of distribution during elimination phase VZ: 0.78 ± 0.17 L/kg
[3]; D8.3.p1 IV 1 mg/kg, mean n=3, read-out: Initial concentration C0
  C0: 1530 ± 70 nM
[3]; D8.3.p1 PO 5 mg/kg vs IV 1 mg/kg, mean
  Oral bioavailability F: 10.74%
[3]; [5]
  Cl/F: 0.0112 L/min and 0.00671 L/min and 0.00706 L/min
  T1/2: 23.33 min and 18.86 min and 45.25 min
  Tmax: 15 min and 30 min
[3]; D8.3.p1 PO 5 mg/kg, individual mice M1, M2, M3, 5 mg/kg, read-out: Cmax
  Cmax: 220 nM and 190 nM
[3]; D8.3.p1 PO 5 mg/kg, mean n=3
  Apparent clearance Cl/F: 0.00834 L/min
  Half-life T1/2: 29.15 min
  Time of max concentration Tmax: 25 ± 0.01 min
[3]; D8.3.p1 PO 5 mg/kg, mean n=3, read-out: Max concentration Cmax
  Cmax: 210 ± 20 nM
[3]; [6]
  Cl/F: 0.000617 L/min and 0.000577 L/min and 0.000312 L/min
  T1/2: 111.2 min and 101.86 min and 250.78 min
  Tmax: 60 min and 30 min
[3]; D8.3.p1 SQ 5 mg/kg, individual mice M1, M2, M3, read-out: Cmax
  Cmax: 840 nM and 1080 nM and 930 nM
[3]; D8.3.p1 SQ 5 mg/kg, mean n=3
  Half-life T1/2: 154.61 min
  Time of max concentration Tmax: 50 ± 17.32 min
[3]; D8.3.p1 SQ 5 mg/kg, mean n=3, read-out: Max concentration Cmax
  Cmax: 950 ± 120 nM
[3]; female, Balb/C, mouse, in vivo, iv, 1 mg/kg, 5 min
  Plasma level: 990 nM
[3]; female, Balb/C, mouse, in vivo, iv, 1 mg/kg, 0.25 h
  Plasma level: 630 nM
[3]; [7]
  level at time molar at 5 min: 1110 nM
  level at time molar at 0.25 h: 420 nM
  level at time molar at 0.5 h: 190 nM
[3]; female, Balb/C, mouse, in vivo, sc, 5 mg/kg, 0.25 h
  Plasma level: 700 nM
[3]; female, Balb/C, mouse, in vivo, sc, 5 mg/kg, 0.5 h
  Plasma level: 710 nM
[3]; female, Balb/C, mouse, in vivo, sc, 5 mg/kg, 2 h
  Plasma level: 880 nM
[3]; female, Balb/C, mouse, in vivo, sc, 5 mg/kg, 6 h
  Plasma level: 230 nM
[3]; [8]
  level at time molar at 0.25 h: 510 nM
  level at time molar at 0.5 h: 540 nM
  level at time molar at 1 h: 840 nM
  level at time molar at 2 h: 720 nM
  level at time molar at 6 h: 150 nM
  level at time molar at 24 h: 20 nM
[3]; female, Balb/C, mouse, in vivo, sc, D8.3.p1 SQ 5 mg/kg, 30 min, individual mice M1, M2, M3, read-out: Plasma level
  level at time molar at 0.5 h: 1080 nM
[3]; female, Balb/C, mouse, in vivo, D8.3.p1 PO 5 mg/kg, mean n=3
  AUC(0-inf): 0.238 µM·h
[3]; female, Balb/C, mouse, in vivo, D8.3.p1 PO 5 mg/kg, mean n=3, read-out: AUC0-t (converted)
  AUC(0-t): 0.182 µM·h
[3]; female, Balb/C, mouse, plasma, sc, D8.3.p1 SQ 5 mg/kg, mean n=3, read-out: Apparent clearance Cl/F
  CL/F: 0.502 mL/min
[3]; mouse, in vivo, 5 mg/kg, Tmax
  Tmax: 60 min
[3]; mouse, in vivo, iv, 1 mg/kg, 5 min
  Plasma level: 1070 ± 70 nM
[3]; mouse, in vivo, iv, 1 mg/kg, 0.5 h
  Plasma level: 270 ± 90 nM
[3]; mouse, in vivo, iv, 1 mg/kg, 1 h
  Plasma level: 60 ± 40 nM
[3]; mouse, in vivo, iv, 1 mg/kg, C0
  C0: 1520 nM
[3]; mouse, in vivo, po, 5 mg/kg, 1 h
  Plasma level: 120 ± 40 nM
[3]; mouse, in vivo, po, 5 mg/kg, 2 h
  Plasma level: 10 nM
[3]; mouse, in vivo, po, 5 mg/kg, Cmax
  Cmax: 230 nM
[3]; mouse, in vivo, po, 5 mg/kg, Tmax
  Tmax: 30 min
[3]; mouse, in vivo, sc, 5 mg/kg, 0.25 h
  Plasma level: 610 ± 130 nM
[3]; mouse, in vivo, sc, 5 mg/kg, 0.5 h
  Plasma level: 780 ± 280 nM
[3]; mouse, in vivo, sc, 5 mg/kg, 1 h
  Plasma level: 900 ± 50 nM
[3]; mouse, in vivo, sc, 5 mg/kg, 2 h
  Plasma level: 780 ± 90 nM
[3]; mouse, in vivo, sc, 5 mg/kg, 4 h
  Plasma level: 340 ± 170 nM
[3]; mouse, in vivo, sc, 5 mg/kg, 6 h
  Plasma level: 130 ± 120 nM
[3]; mouse, in vivo, sc, 5 mg/kg, 24 h
  Plasma level: 10 ± 0 nM
Caco-2 cells
  Caco_R1: 13.1
  Caco_R3: 8.9
[2]
  Papp A→B: 11.8 ×10⁻⁶ cm/s

## CC[C@@H](C)[C@H]1NC(=O)[C@@H]2CCCN2C(=O)[C@@H]([C@H](C)CC)NC(=O)CN(C)C(=O)[C@H](CC(C)C)NC(=O)[C@@H](Cc2ccccc2)NC(=O)[C@H](CC(C)C)N(C)C(=O)[C@H]2CCCN2C(=O)[C@@H](CC(C)C)NC(=O)[C@H](CC(C)C)NC(=O)[C@H]2CCCN2C1=O [Design D11.2, DILE DPRO LEU DLEU DPRO *LEU DPHE LEU *GLY DILE PRO] (cyclo(L[Sar][dI]P[dI][dP]L[dL][dP][NMeL][dF]))
[1]
  PAMPA_R1: 1.82E-06
  PAMPA_R3: 2.50E-06
In vitro
  Papp: 2.15 ×10⁻⁶ cm/s
Caco-2 cells
  Caco_R1: 1.94
  Caco_R3: 2.65
[2]
  Papp A→B: 2.82 ×10⁻⁶ cm/s
